# Assay results reported in patent US11136311B2, “Heteroaromatic derivatives as NIK inhibitors” (Janssen Pharmaceutica NV, priority 2016, dated 2021).
# Like-named read-outs stand apart in the source and are kept apart here.
# How the values were obtained:
# [1] = target: recombinant human NF-kappaB-inducing kinase (NIK/MAP3K14) (Homo sapiens (Human), UniProt Q99558); experiment: Inhibition of auto-phosphorylation of recombinant human NIK/MAP3K14 activity (AlphaScreen); assay type: biochemical; settings: averaged values over all measurements on all batches
# Chain of recombinant human NF-kappaB-inducing kinase (NIK/MAP3K14) (Q99558 whole entry): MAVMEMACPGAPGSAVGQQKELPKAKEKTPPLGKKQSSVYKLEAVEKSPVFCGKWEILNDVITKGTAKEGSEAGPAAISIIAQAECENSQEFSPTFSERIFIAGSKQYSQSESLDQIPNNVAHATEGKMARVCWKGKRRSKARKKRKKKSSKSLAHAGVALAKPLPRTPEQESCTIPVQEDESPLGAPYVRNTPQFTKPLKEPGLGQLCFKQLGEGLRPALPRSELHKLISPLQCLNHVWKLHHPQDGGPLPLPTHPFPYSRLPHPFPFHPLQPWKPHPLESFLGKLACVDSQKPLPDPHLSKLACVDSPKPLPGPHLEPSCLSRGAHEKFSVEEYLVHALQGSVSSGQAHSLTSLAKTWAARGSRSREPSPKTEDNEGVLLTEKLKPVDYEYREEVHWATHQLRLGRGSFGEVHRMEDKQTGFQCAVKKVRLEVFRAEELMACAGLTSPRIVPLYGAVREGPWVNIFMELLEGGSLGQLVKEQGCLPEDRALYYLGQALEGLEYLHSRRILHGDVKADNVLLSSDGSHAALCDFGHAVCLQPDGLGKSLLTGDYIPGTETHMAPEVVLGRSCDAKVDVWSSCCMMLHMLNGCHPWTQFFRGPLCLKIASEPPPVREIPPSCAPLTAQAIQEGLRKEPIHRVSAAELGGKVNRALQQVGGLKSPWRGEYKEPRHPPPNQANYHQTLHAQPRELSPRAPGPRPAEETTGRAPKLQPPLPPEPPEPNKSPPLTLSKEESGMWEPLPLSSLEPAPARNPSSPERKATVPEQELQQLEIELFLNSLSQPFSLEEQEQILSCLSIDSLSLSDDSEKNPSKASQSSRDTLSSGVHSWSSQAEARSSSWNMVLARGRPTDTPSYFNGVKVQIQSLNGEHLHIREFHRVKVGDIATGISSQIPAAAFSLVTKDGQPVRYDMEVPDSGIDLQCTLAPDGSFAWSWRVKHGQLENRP
# In short: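 GST-tagged NIK at 0.2 nM autophosphorylated for 1 h at 25° C with 25 microM ATP in Tris pH 7.5, MgCl2, 1% DMSO. Phospho-IKK Ser176/180 antibody with AlphaScreen beads detected product. IC50 came from sigmoidal fits of blank-corrected % inhibition.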
# [2] = tested on: P-IKKα levels in L363 cells; experiment: Effect of compounds on P-IKKα levels in L363 (NIK translocated multiple myeloma) cells; assay type: cell-based, human; settings: averaged values, read-out: Inhibition of pIKKα_L-363 (IC50 (nM))
# Experimental: Effect of compounds on P-IKKα levels in L363 (NIK translocated multiple myeloma) cells
# All compounds tested were dissolved in DMSO and further dilutions were made in culture medium. Final DMSO concentration was 1% (v/v) in cell assays. The human L363 cells (ATCC) were cultured in RPMI 1640 medium supplemented with GlutaMax and 10% fetal calf serum (PAA). Cells were routinely maintained at densities of 0.2×10^6 cells per ml-1×10^6 cells per ml at 37° C. in a humidified 5% CO2 atmosphere. Cells were passaged twice a week splitting back to obtain the low density. Cells were seeded in 96 well plates (Nunc 167008) at 2×10^6 per ml media in a volume of 75 μl per well plus 25 μl 1 μg/ml recombinant human B-cell activating factor (BAFF/BLyS/TNFSF13B). Seeded cells were incubated at 37° C. in a humidified 5% CO2 atmosphere for 24 hr. Drugs and/or solvents were added (20 μl) to a final volume of 120 μl. Following 2 hr treatment plates were removed from the incubator and cell lysis was achieved by the addition of 30 μl 5× lysis buffer followed by shaking on a plate shaker at 4° C. for 10 min. At the end of this incubation lysed cells were centrifuged at 800×g for 20 min at 4° C. and the lysate was assessed for P-IKKα levels by sandwich immuno-assay carried out in anti-rabbit antibody coated Mesoscale plates. Within an experiment, the results for each treatment were the mean of 2 replicate wells. For initial screening purposes, compounds were tested using an 8 point dilution curve (serial 1:3 dilutions). For each experiment, controls (containing MG132 and BAFF but no test drug) and a blank incubation (containing MG132 and BAFF and 10 μM ADS125117, a test concentration known to give full inhibition) were run in parallel. The blank incubation value was subtracted from all control and sample values. To determine the IC50 a sigmoidal curve was fitted to the plot of % inhibition of control P-IKKα levels versus Log10 compound concentration.
# [3] = tested on: JJN-3 cells; experiment: Antiproliferative activity on JJN-3 (NIK translocated) multiple myeloma cells (CellTiter-Glo); assay type: cell-based, human; settings: JJN-3 (NIK translocated) cells, 96 hr, averaged values, read-out: JJN-3 Proliferation inhibition (IC50 (nM))
# In short: (§1)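 Suspension myeloma cells in RPMI 1640 with 10% FCS, plated at 15000 (JJN-3) or 20000 (KMS12-BM) cells/well, were treated 96 hr with 9-point 1:3 compound dilutions at 0.3% DMSO. CellTiter-Glo luminescence, minus a time-zero blank, was expressed as % of untreated control growth.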
# [4] = tested on: KMS12-BM cells; experiment: Antiproliferative activity on KMS12-BM (NIK WT) multiple myeloma cells (CellTiter-Glo); assay type: cell-based, human; settings: KMS12-BM (NIK WT) cells, 96 hr, averaged values, read-out: KMS-12 Proliferation inhibition (IC50 (nM))
# In short: as §1
# [5] = Homo sapiens, L-363, L363 cells
Compound,IC50 [1] [nM],"IC50 [2, 5] [nM]","IC50 ([3]; Homo sapiens, JJN-3, 96 h) [nM]","IC50 ([4]; Homo sapiens, KMS-12-BM, 96 h) [nM]",IC50 ([2]; L363 cells) [nM],IC50 [3] [nM],IC50 [4] [nM]
C[C@]1(CO)CNc2c(C#N)cc(-c3ccnc(Nc4cc(Cl)nn4C[C@@H]4CCOC4)n3)cc21 [Compound 129],3.8,28,251,2040,,,
Cc1cc(Nc2nccc(-c3cc(C#N)c4c(c3)[C@@](C)(CO)CN4)n2)n(CC(=O)N2CC(F)(F)C2)n1 [Compound 87],~6.5,34,3240,> 10000,,,
C=CCn1nc(C)cc1Nc1nccc(-c2cc(C#N)c3c(c2)[C@@](C)(CO)CN3)n1 [Compound 73],1.9,2,195,1320,,,
COCCCn1ncc(Nc2nccc(-c3cc(C#N)c4c(c3)[C@@](C)(CO)CN4)n2)c1CCC(C)C [Compound 104],3.4,15,117,> 10000,,,
CC(C)CCc1c(Nc2nccc(-c3cc(C#N)c4c(c3)[C@@](C)(CO)CN4)n2)cnn1CC1CCN(CC(F)(F)F)CC1 [Compound 163],12,5,309,> 10000,,,
C[C@]1(CO)CNc2c(C#N)cc(-c3ccnc(Nc4cc(Cl)nn4C[C@@H]4CCCO4)n3)cc21 [Compound 113],6.2,42,69,3020,,,
Cc1cc(Nc2nccc(-c3cc(C#N)c4c(c3)[C@@](C)(CO)CN4)n2)nn1CC1CCOCC1 [Compound 60],2,5,72,~501,,,
CC(C)c1nn(CC(F)F)cc1Nc1nccc(-c2cc(C#N)c3c(c2)[C@@](C)(CO)CN3)n1 [Compound 204],1.1,2,16,~6030,,,
CN(C(=O)Cn1nc(Cl)cc1Nc1nccc(-c2cc(C#N)c3c(c2)[C@@](C)(CO)CN3)n1)C1CC1 [Compound 118],4,33,447,> 10000,,,
CNC(=O)c1cc(Nc2nccc(-c3cc(C#N)c4c(c3)[C@@](C)(CO)CN4)n2)nn1CCC1CC1 [Compound 201],3.4,,,,2,100,> 10000
Cc1cc(Nc2nccc(-c3cc(C#N)c4c(c3)[C@@](C)(CO)CN4)n2)n(CC2CCCOC2)n1 (mixture of isomers) [Compound 94],5.6,7,178,4170,,,
CC(C)CCc1c(Nc2nccc(-c3cc(C#N)c4c(c3)[C@@](C)(CO)CN4)n2)cnn1CC1CCN(CC(F)F)CC1 [Compound 169],3.9,16,389,~7080,,,
CN1CCN(Cc2c(Nc3nccc(-c4cc(C#N)c5c(c4)[C@@](C)(CO)CN5)n3)cnn2CCC2CC2)CC1 [Compound 167],13,62,83,> 10000,,,
CNC(=O)c1cc(Nc2nccc(-c3cc(C#N)c4c(c3)[C@@](C)(CO)CN4)n2)nn1C1CCCC1 [Compound 195],4.9,1,158,> 10000,,,
Cc1c(Nc2nccc(-c3cc(C#N)c4c(c3)[C@@](C)(CO)CN4)n2)cnn1CCN1CCOCC1 [Compound 170],2.2,7,417,~1780,,,
C[C@]1(CO)CNc2c(C#N)cc(-c3ccnc(Nc4cn(CC(F)F)nc4C4CC4)n3)cc21 [Compound 205],2.2,1,5,~4900,,,
CC(=O)OC[C@@]1(C)CNc2c(C#N)cc(-c3ccnc(Nc4cc(C)nn4CC4CCN(C)CC4)n3)cc21 [Compound 178],20,,,,141,98,2340

Compound,IC50 [1] [nM],"IC50 [2, 5] [nM]","IC50 ([3]; Homo sapiens, JJN-3, 96 h) [nM]","IC50 ([4]; Homo sapiens, KMS-12-BM, 96 h) [nM]",IC50 ([2]; L363 cells) [nM],IC50 [3] [nM],IC50 [4] [nM]
CC(C)CCc1c(Nc2nccc(-c3cc(C#N)c4c(c3)[C@@](C)(CO)CN4)n2)cnn1Cc1cncn1C [Compound 120],~29,3,126,5010,,,
Cc1cc(Nc2nccc(-c3cc(C#N)c4c(c3)[C@@](C)(CO)CN4)n2)nn1CC1CCCCO1 (stereo partly drawn) [Compound 71],2.8,,,,4,102,813
"Cc1cc(Nc2nccc(-c3cc(C#N)c4c(c3)[C@@](C)(CO)CN4)n2)n(CC2COCCO2)n1 (single isomer, unassigned) [Compound 84]",11,,437,,11,,> 10000
COCCc1c(Nc2nccc(-c3cc(C#N)c4c(c3)[C@@](C)(CO)CN4)n2)cnn1CC(F)F [Compound 181],3.3,11,87,~9120,,,
Cc1nn(CC(F)F)cc1Nc1nccc(-c2cc(C#N)c3c(c2)[C@@](C)(CO)CN3)n1 [Compound 132],1,2,58,~1860,,,
CC(C)Oc1c(Nc2nccc(-c3cc(C#N)c4c(c3)[C@@](C)(CO)CN4)n2)cnn1C [Compound 194],3.1,29,407,> 10000,,,
CC(C)Oc1nn(CC(F)F)cc1Nc1nccc(-c2cc(C#N)c3c(c2)[C@@](C)(CO)CN3)n1 [Compound 188],2.9,4,138,~8130,,,
Cc1cc(Nc2nccc(-c3cc(C#N)c4c(c3)[C@@](C)(CO)CN4)n2)n(C[C@@H]2CN(C)CCO2)n1 [Compound 139],13,182,1120,> 10000,,,
C[C@]1(CO)CNc2c(C#N)cc(-c3ccnc(Nc4cc(C#N)nn4CCC4CC4)n3)cc21 [Compound 128],3.7,~41,417,1900,,,
CN1CCC(Cn2nc(Cl)cc2Nc2nccc(-c3cc(C#N)c4c(c3)[C@@](C)(CO)CN4)n2)CC1 [Compound 124],6.8,219,49,832,,,
COCCN1CCC(Cn2nc(Cl)cc2Nc2nccc(-c3cc(C#N)c4c(c3)[C@@](C)(CO)CN4)n2)CC1 [Compound 138],8.3,178,44,2570,,,
Cc1c(Nc2nccc(-c3cc(C#N)c4c(c3)[C@@](C)(CO)CN4)n2)cnn1CC1CCOCC1 [Compound 76],1.2,2,141,741,,,
CC(C)CCn1nc(C#N)cc1Nc1nccc(-c2cc(C#N)c3c(c2)[C@@](C)(CO)CN3)n1 [Compound 93],11,37,182,457,,,
Cc1c(Nc2nccc(-c3cc(C#N)c4c(c3)[C@@](C)(CO)CN4)n2)cnn1C1CCN(C)CC1 [Compound 123],1.6,20,195,~447,,,
Cc1cc(Nc2nccc(-c3cc(C#N)c4c(c3)[C@@](C)(CO)CN4)n2)n(CC(F)F)n1 [Compound 186],6.5,3,151,617,,,
CC(C)n1nc(C2CCOCC2)cc1Nc1cc(-c2cc(C#N)c3c(c2)[C@@](C)(CO)CN3)ncn1 [Compound 91],5.5,13,324,> 10000,,,
